Experimental data published in PMC6288471 (Frontiers in Veterinary Science, 2018).
Where two headings read alike, the source gives them in different places.

What was measured:
[1] = Clinical pathologic testing: automated hemogram; assay type: in vivo; settings: horses, 24 h after PO or IV administration
Method: (§1) Automated hemogram results were obtained from the EDTA-anticoagulated blood with a hematology analyzer (ADVIA 2120, Siemens Healthcare Diagnostics Inc., Tarrytown, NJ, USA). To verify the automated platelet counts, modified Wright's-stained blood smears were evaluated for platelet clumps by trained medical technologists. Biochemical analysis for renal analytes (serum urea nitrogen and creatinine concentrations), liver enzymes (sorbitol dehydrogenase, glutamate dehydrogenase, aspartate aminotransferase and gamma glutamyl transferase activities), protein-related analytes (total protein, albumin, and globulin concentrations), and the acute phase protein, serum amyloid A, were performed with an automated chemistry analyzer (Hitachi P modular, Roche Diagnostics, Indianapolis, IN, USA) using manufacturer's reagents, with the exception of sorbitol dehydrogenase (Sigma-Aldrich), glutamate dehydrogenase (Randox Laboratories Ltd, Antrim, UK), and serum amyloid A (LZ test Eiken-SAA, Mast House, Merseyside, UK).

[2] = other animals; cited from earlier work
[3] = Clinical pathologic testing: select biochemical tests; assay type: in vivo, horses; settings: for SDH (sorbitol dehydrogenase), median (range): reference interval 0–11; for GLDH (glutamate dehydrogenase), median (range): reference interval 1–8; for UN (urea nitrogen), median (range): reference interval 3.9–10.0; for SAA (serum amyloid A), median (range): reference interval 5–20, 5 mg/L is the lower limit of detection; for GGT (gamma glutamyl transferase), median (range): reference interval 8–29; for GLOB (globulins), median (range): reference interval 24–44; for ALB (albumin), median (range): reference interval 30–37; for CREAT (creatinine), median (range): reference interval 53–141; for TP (total protein), median (range): reference interval 57–77
Method: as §1

plasma protein = settings: rabbits; cited from earlier work
[4] = rats; cited from earlier work
[5] = Protein binding of apixaban in spiked platelet-poor plasma (ultrafiltration, UPLC-MS); assay type: in vitro ADME, horse
Method: The supernatant was filtered with a […] syringe filter (Corning Inc.). […] Half of the sample was subsequently frozen at −20°C and the rest was ultracentrifuged at 16,000 × g for 30 min in a molecular exclusion device (Amicon Ultra 30k filter, Millipore), to remove the major plasma proteins. The ultrafiltrate was then frozen at −20°C. Both the spiked plasma and the ultrafiltrate of the spiked plasma were analyzed for apixaban using UPLC-MS.

[6] = humans; cited from earlier work
[7] = cats, cited from earlier work

In the case of `COc1ccc(-n2nc(C(N)=O)c3c2C(=O)N(c2ccc(N4CCCCC4=O)cc2)CC3)cc1` [apixaban], the “changes in hematologic test results” value [1] is listed as “no significant changes”, the “fecal route of elimination, share of the dose” value [2] is listed as “more than 54%” and the “SDH (sorbitol dehydrogenase), median (range)” value (shortened to “SDH (sorbitol dehydrogenase)”) ([3]; IV, T0 (before)) is listed as 4 (3–4) U/L. The “GLDH (glutamate dehydrogenase), median (range)” value (“GLDH (glutamate dehydrogenase)” for short) ([3]; IV, T0 (before)) was 4 (3–4) U/L, the “UN (urea nitrogen), median (range)” value ([3]; IV, T0 (before)) was 6.8 (6.1–7.8) mmol/L and the “SAA (serum amyloid A), median (range)” value ([3]; IV, T0 (before)) was 5 (5–9) mg/L. The “GGT (gamma glutamyl transferase), median (range)” value (from here on “GGT (gamma glutamyl transferase)”) ([3]; IV, T0 (before)) was 11 (10–13) U/L, the “GLOB (globulins), median (range)” value ([3]; IV, T0 (before)) was 36 (32–38) g/L and the “ALB (albumin), median (range)” value ([3]; IV, T0 (before)) was 32 (30–34) g/L. The “CREAT (creatinine), median (range)” value ([3]; IV, T0 (before)) was 106 (97–106) μmol/L, the “TP (total protein), median (range)” value ([3]; IV, T0 (before)) was 68 (66–71) g/L and the “SDH (sorbitol dehydrogenase)” value ([3]; IV, T24) was 3 (2–4) U/L. The “GLDH (glutamate dehydrogenase)” value ([3]; IV, T24) was 3 (3–5) U/L, the “UN (urea nitrogen), median (range)” value ([3]; IV, T24) was 5.7 (5.4–7.5) mmol/L and the “SAA (serum amyloid A), median (range)” value ([3]; IV, T24) was 8 (5–12) mg/L. The “GGT (gamma glutamyl transferase)” value ([3]; IV, T24) was 11 (10–13) U/L, the “GLOB (globulins), median (range)” value ([3]; IV, T24) was 37 (32–40) g/L and the “ALB (albumin), median (range)” value ([3]; IV, T24) was 32 (30–35) g/L. The “CREAT (creatinine), median (range)” value ([3]; IV, T24) was 115 (106–115) μmol/L, the “TP (total protein), median (range)” value ([3]; IV, T24) was 68 (67–72) g/L and the “SDH (sorbitol dehydrogenase)” value ([3]; PO, T0 (before)) was 5 (4–10) U/L. The “GLDH (glutamate dehydrogenase)” value ([3]; PO, T0 (before)) was 6 (4–10) U/L, the “UN (urea nitrogen), median (range)” value ([3]; PO, T0 (before)) was 6.4 (5.4–7.1) mmol/L and the “SAA (serum amyloid A), median (range)” value ([3]; PO, T0 (before)) was 5 (5–7) mg/L. The “GGT (gamma glutamyl transferase)” value ([3]; PO, T0 (before)) was 12 (7–13) U/L, the “GLOB (globulins), median (range)” value ([3]; PO, T0 (before)) was 35 (30–38) g/L and the “ALB (albumin), median (range)” value ([3]; PO, T0 (before)) was 32 (29–32) g/L. For the same compound, the “CREAT (creatinine), median (range)” value ([3]; PO, T0 (before)) was 97 (88–106) μmol/L, the “TP (total protein), median (range)” value ([3]; PO, T0 (before)) was 67 (62–70) g/L and the “SDH (sorbitol dehydrogenase)” value ([3]; PO, T24) was 4 (3–5) U/L. For the same compound, the “GLDH (glutamate dehydrogenase)” value ([3]; PO, T24) was 4 (4–7) U/L, the “UN (urea nitrogen), median (range)” value ([3]; PO, T24) was 5.7 (4.6–6.4) mmol/L and the “SAA (serum amyloid A), median (range)” value ([3]; PO, T24) was 5 (5–5) mg/L. The “GGT (gamma glutamyl transferase)” value ([3]; PO, T24) was 12 (9–13) U/L, the “GLOB (globulins), median (range)” value ([3]; PO, T24) was 36 (30–39) g/L and the “ALB (albumin), median (range)” value ([3]; PO, T24) was 32 (29–33) g/L. For the same compound, the “CREAT (creatinine), median (range)” value ([3]; PO, T24) was 106 (97–115) μmol/L, the “TP (total protein), median (range)” value ([3]; PO, T24) was 65 (63–72) g/L and the “changes in chosen biochemical test results” value ([3]; horses, 24 h after PO or IV administration) was “no significant changes”. For the same compound, the apixaban protein bound (plasma protein) was ~ 60%, the “availability after oral administration” value [4] was 50% and the fraction unbound at 30 min, 200 nM ([5]; horse PPP spiked at 92 ng/mL (200 nM), read-out: mean percentage of protein binding (converted)) was 0.076. The fraction unbound at 30 min, 1000 nM ([5]; horse PPP spiked at 460 ng/mL (1,000 nM), read-out: mean percentage of protein binding (converted)) was 0.015, the fraction unbound at 30 min ([5]; horse plasma, range as given in abstract) was 0.01 to 0.08 and the “availability after oral administration” value [6] was 50%. The “fecal route of elimination, share of the dose” value [6] was over 46%, the half-life ([7]; 0.2 mg/kg IV dose) was 1.1 h and the Cmax ([7]; IV administration 0.2 mg/kg) was 460 ng/mL. The bioavailability ([7]; oral 0.2 mg/kg) was 85% and the Cmax ([7]; oral administration 0.2 mg/kg) was 74 ng/mL.
